Molecular target: T1, His-TEV-AtPP01 ΔcTP V030 (SEQ ID NO: 374) (Arabidopsis thaliana, UniProt P55826, S305L/Y426V)
T1 construct: with cTPs removed; made in house; host or cells: E. coli BL21 (DE3), His GraviTrap, partially purified
T1 sequence (P55826 with tags, fused parts or gaps S305L/Y426V): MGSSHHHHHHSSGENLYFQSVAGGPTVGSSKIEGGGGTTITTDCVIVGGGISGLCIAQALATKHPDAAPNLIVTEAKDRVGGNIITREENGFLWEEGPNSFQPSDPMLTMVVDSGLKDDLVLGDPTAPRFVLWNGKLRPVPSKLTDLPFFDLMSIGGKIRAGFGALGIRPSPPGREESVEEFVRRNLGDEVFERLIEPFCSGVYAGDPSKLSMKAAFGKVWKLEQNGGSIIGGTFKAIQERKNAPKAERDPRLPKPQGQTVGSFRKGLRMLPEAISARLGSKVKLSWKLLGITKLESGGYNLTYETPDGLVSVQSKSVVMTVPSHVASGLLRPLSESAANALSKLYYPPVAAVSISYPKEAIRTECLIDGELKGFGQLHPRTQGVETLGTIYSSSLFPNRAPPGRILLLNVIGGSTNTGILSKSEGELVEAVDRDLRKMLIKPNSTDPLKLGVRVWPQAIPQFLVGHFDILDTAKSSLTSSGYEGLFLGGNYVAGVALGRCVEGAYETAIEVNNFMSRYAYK
Test: activity rate of PPO variant in in vitro assay
Type: biochemical
Conditions: role: substrate; 1 uM protoporphyrinogen IX; no inhibitor
Description: A pET24 plasmid containing a DNA sequence encoding variants of AtPPO1 derived from Arabidopsis thaliana with cTPs removed and both a 6×His tag and TEV protease cleavage tag added at the N-terminus, codon-optimised for expression in E. coli, and under control of a T7 promoter, was synthesised by Twist Bioscience. The following variants were synthesised: WT AtPPO1 (SEQ ID NO: 370), AtPPO1 L479M (SEQ ID NO: 371), AtPPO1 L479N (SEQ ID NO: 372), AtPPO1 S305L Y426V (SEQ ID NO: 374) and AtPPO1 S305L Y426V L479M (SEQ ID NO: 373). This plasmid was expressed in E. coli BL21 (DE3) with 50 μg/mL kanamycin selection. 10 mL of overnight cultures grown at 37° C. were used to inoculate 1 L AIM (AIM-Terrific Broth Base including Trace elements, Formedium) in 2 L shake flasks. Cultures were grown at 37° C., 200 rpm for 3 hours and then overnight at 26° C. Cells were harvested centrifugation. 5-15 g of cell pellet was lysed in and resuspended in ratio of 1:1.5 in lysis buffer (20 mM Tris pH8, 500 mM sodium chloride, 10% glycerol, 1× complete Protease EDTA-free Inhibitor Tablet (Roche), 10 mM imidazole). The resuspension was sonicated at 75% using 10 cycles of 30 seconds, 40 seconds off. After sonication Triton X-100 was added to the lysates at a final concentration of 0.5%. The lysates were centrifuged at 20,000 rpm for 25 min at 4° C. Cleared lysates were loaded on His GraviTrap (Cytiva) columns, washed with 20 mL of lysis buffer and eluted in elution buffer (20 mM Tris pH8, 500 mM sodium chloride, 10% glycerol, 200 mM imidazole, 0.03% (v/v) Triton X-100). The eluate was desalted on a PD10 column and 2.5-3.2 mL was collected. Protein concentration was measured and calculated using the absorbance at 280 nm. Extracts were diluted 1 in 4 and 10 uL was analysed by SDS PAGE.
Partially purified Protoporphyrinogen Oxidase enzymes were assayed for activity using fluorescence adapted from the method of Shepherd & Dailey (Anal Biochem. 2005 344(1) 115-121). The assay was performed in black 384 well plates with a clear bottom and the total volume of the reaction mixture was 91 ul. The final assay mixture contained 100 mM K2HPO4 pH7.2, 1 mM Na2EDTA, 5 mM DTT, 20% glycerol (v/v), 0.05% Tween 20 (v/v), 1.1% DMSO (v/v), 1 uM protoporphyrinogen IX and 1.5 nM enzyme. Compounds were dissolved in DMSO at 1 mM and a 4-fold serial dilution carried out to give 8 rates. 1 ul was added to the assay mixture. This gave final compound concentrations of 11, 2.7, 0.69, 0.17, 0.04, 0.01, 0.002, 0.0007 uM. Enzyme and inhibitor were preincubated for 5 minutes prior to starting the reaction with the addition of the substrate. […] IC50s were calculated using GraphPad Prism 7.05 nonlinear regression (Table 6). Each compound was tested in duplicate.

C=Cc1c2[nH]c(c1C)Cc1[nH]c(c(CCC(=O)O)c1C)Cc1[nH]c(c(C)c1CCC(=O)O)Cc1[nH]c(c(C)c1C=C)C2 [protoporphyrinogen IX]
Rate: 5.3 rfu second^−1 pmole^−1

Source: patent publication US20260297542A1, “HERBICIDE RESISTANT PLANTS” (SYNGENTA CROP PROTECTION AG, priority 2023, published 2026)
